Reference: ChEMBL document CHEMBL1149857, “Novel azaphilones, kasanosins A and B, which are specific inhibitors of eukaryotic DNA polymerases beta and lambda from Talaromyces sp” (Bioorg Med Chem, 2008)
The source made the active and inactive calls. The rule behind the calls is not given here.

Tests used:
[1] = target: DNA polymerase beta (Rattus norvegicus) (UniProt P06766); assay: Inhibition of rat DNA polymerase beta at 100 uM
[2] = target: T1, DNA polymerase subunit gamma-1 (Homo sapiens) (UniProt P54098); assay: Inhibition of human DNA polymerase gamma at 100 uM
T1 sequence (whole entry): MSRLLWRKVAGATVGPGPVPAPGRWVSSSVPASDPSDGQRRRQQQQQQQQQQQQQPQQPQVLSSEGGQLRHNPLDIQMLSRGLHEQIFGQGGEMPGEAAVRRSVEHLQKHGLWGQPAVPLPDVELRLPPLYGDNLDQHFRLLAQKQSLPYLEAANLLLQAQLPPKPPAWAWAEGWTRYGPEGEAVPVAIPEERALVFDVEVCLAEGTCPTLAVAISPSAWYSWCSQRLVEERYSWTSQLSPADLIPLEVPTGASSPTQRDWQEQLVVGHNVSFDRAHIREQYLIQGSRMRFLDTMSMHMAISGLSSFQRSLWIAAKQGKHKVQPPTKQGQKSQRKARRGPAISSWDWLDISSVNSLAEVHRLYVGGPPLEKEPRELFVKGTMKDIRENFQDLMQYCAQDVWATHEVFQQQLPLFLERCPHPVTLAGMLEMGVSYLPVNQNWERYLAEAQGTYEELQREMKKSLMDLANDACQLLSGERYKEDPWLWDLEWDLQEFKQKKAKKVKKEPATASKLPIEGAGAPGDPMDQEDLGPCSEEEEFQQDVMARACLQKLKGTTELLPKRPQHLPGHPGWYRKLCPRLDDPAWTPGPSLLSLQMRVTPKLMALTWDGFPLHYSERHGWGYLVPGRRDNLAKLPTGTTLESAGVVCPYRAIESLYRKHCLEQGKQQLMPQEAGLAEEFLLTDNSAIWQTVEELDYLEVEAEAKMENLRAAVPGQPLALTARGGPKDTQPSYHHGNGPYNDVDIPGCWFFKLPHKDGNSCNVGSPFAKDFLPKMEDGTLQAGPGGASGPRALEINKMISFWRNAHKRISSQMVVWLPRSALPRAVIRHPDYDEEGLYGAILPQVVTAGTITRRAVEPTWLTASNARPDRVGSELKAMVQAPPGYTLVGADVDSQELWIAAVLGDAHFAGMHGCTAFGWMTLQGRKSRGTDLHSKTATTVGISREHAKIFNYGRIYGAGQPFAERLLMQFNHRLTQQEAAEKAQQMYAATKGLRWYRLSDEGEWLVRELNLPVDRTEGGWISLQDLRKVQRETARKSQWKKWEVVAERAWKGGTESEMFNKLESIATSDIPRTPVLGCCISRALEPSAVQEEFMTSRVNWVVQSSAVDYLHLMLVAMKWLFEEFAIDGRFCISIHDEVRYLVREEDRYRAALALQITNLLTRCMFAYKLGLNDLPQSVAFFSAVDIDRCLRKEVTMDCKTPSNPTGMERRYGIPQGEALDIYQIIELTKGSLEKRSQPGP

DNA polymerase beta = DNA polymerase beta (Rattus norvegicus, UniProt P06766); assay: Inhibition of rat DNA polymerase beta
[3] = target: T2, DNA polymerase subunit gamma-1 (Homo sapiens, UniProt P54098); assay: Inhibition of human DNA polymerase gamma
T2 sequence (P54098 whole entry): T1 sequence (whole entry)

[4] = target: DNA nucleotidylexotransferase (Bos taurus) (UniProt P06526); assay: Inhibition of calf terminal deoxynucleotidyl transferase
Brassica oleracea = assay: Inhibition of cauliflower DNA polymerase alpha at 100 uM
Oncorhynchus masou = assay: Inhibition of cherry salmon DNA polymerase delta at 100 uM
Escherichia coli = assay: Inhibition of Escherichia coli DNA polymerase 1 Klenow fragment at 100 uM
Tequatrovirus T4 = assay: Inhibition of T4 DNA polymerase at 100 uM
Thermus aquaticus = assay: Inhibition of Thermus aquaticus DNA polymerase at 100 uM
Bos taurus = species: Bos taurus; assay: Inhibition of calf DNA polymerase alpha at 100 uM relative to control
[5] = target: Human immunodeficiency virus type 1 reverse transcriptase (Human immunodeficiency virus 1) (UniProt Q72547); assay: Inhibition of HIV1 reverse transcriptase at 100 uM relative to control
[6] = target: Telomerase reverse transcriptase (Homo sapiens) (UniProt O14746); assay: Inhibition of human telomerase at 100 uM relative to control
Escherichia phage T7 = assay: Inhibition of T7 RNA polymerase […] at 100 uM relative to control
[7] = target: Inosine-5'-monophosphate dehydrogenase 2 (Mus musculus) (UniProt P24547); assay: Inhibition of mouse IMP dehydrogenase 2 at 100 uM relative to control
[8] = target: T3, DNA topoisomerase 1 (Homo sapiens) (UniProt P11387); assay: Inhibition of human DNA topoisomerase 1 at 100 uM relative to control
T3 sequence (whole entry): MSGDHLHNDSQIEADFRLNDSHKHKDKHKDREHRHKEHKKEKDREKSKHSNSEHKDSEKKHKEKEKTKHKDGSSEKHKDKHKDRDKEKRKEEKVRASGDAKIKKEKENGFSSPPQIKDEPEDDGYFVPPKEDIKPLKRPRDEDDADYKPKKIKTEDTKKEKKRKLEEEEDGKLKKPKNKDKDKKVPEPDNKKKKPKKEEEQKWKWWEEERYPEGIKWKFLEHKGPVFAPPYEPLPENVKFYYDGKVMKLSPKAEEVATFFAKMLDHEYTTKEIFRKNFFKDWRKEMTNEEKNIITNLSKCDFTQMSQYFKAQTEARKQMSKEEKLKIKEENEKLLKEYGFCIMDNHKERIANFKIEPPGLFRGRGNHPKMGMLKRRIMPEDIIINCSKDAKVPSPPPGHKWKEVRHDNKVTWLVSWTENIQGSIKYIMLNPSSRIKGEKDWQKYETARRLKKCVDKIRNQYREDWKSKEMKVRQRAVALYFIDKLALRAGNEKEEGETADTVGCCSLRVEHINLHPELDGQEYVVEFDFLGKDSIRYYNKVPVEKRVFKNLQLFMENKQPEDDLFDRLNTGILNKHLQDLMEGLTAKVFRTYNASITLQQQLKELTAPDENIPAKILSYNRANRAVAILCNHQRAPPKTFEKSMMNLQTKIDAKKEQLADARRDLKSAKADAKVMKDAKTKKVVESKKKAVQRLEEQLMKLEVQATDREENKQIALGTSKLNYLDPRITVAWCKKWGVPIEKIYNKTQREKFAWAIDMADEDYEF

[9] = target: DNA topoisomerase 2-alpha (Homo sapiens) (UniProt P11388); assay: Inhibition of human DNA topoisomerase 2 at 100 uM relative to control
[10] = target: Polynucleotide kinase (Enterobacteria phage T4) (UniProt P06855); assay: Inhibition of T4 polynucleotide kinase at 100 uM relative to control; settings: Tequatrovirus T4
[11] = target: Deoxyribonuclease-1 (Bos taurus) (UniProt P00639); assay: Inhibition of bovine deoxyribonuclease 1 at 100 uM relative to control
Sequence of Deoxyribonuclease-1 (Bos taurus) (P00639 whole entry): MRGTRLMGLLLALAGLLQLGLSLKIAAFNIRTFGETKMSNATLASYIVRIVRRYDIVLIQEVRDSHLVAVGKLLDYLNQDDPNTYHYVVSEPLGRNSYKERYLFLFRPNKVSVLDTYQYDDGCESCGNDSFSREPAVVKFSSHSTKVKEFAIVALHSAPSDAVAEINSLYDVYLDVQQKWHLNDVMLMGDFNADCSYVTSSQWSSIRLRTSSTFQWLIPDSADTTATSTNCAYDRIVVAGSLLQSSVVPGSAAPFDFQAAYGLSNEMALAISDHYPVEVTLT

Sequence of Telomerase reverse transcriptase (Homo sapiens) (O14746 whole entry): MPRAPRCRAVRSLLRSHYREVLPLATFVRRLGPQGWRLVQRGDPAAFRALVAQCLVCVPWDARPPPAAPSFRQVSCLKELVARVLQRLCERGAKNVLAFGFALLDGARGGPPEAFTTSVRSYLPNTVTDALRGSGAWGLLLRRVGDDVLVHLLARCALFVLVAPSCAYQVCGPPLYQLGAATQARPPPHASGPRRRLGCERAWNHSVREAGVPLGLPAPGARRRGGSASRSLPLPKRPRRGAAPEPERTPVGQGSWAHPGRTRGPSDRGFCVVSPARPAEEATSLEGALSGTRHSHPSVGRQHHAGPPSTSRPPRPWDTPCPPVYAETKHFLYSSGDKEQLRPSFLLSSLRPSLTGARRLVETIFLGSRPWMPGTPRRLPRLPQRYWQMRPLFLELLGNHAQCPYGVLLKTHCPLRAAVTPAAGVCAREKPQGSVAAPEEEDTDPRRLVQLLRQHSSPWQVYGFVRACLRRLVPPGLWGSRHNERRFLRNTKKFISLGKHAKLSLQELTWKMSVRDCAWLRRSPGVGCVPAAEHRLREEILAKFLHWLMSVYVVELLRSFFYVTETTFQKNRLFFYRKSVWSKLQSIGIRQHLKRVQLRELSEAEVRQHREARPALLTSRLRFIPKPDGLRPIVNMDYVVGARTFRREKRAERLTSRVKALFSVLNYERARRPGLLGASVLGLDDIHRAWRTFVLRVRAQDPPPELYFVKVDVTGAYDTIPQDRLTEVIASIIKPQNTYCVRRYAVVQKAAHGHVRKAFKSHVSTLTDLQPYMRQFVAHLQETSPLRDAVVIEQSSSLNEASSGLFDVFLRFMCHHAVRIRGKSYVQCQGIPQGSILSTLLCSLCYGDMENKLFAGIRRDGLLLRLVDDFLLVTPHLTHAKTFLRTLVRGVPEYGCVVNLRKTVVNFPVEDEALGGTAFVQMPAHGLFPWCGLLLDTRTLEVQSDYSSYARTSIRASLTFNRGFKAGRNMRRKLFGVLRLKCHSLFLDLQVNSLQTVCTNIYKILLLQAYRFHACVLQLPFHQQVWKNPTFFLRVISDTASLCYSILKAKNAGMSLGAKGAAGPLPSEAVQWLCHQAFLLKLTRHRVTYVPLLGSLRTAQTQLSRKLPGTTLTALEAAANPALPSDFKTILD
Sequence of Polynucleotide kinase (Enterobacteria phage T4) (P06855 whole entry): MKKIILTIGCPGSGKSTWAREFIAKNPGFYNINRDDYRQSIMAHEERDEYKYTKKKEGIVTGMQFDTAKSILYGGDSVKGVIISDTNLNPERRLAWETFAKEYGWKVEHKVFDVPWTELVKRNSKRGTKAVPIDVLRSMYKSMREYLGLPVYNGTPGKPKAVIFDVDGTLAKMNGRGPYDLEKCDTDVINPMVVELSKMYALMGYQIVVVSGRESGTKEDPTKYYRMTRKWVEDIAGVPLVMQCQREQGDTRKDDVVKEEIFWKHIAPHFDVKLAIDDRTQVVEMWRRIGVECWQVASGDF
Sequence of Inosine-5'-monophosphate dehydrogenase 2 (Mus musculus) (P24547 whole entry, looked up): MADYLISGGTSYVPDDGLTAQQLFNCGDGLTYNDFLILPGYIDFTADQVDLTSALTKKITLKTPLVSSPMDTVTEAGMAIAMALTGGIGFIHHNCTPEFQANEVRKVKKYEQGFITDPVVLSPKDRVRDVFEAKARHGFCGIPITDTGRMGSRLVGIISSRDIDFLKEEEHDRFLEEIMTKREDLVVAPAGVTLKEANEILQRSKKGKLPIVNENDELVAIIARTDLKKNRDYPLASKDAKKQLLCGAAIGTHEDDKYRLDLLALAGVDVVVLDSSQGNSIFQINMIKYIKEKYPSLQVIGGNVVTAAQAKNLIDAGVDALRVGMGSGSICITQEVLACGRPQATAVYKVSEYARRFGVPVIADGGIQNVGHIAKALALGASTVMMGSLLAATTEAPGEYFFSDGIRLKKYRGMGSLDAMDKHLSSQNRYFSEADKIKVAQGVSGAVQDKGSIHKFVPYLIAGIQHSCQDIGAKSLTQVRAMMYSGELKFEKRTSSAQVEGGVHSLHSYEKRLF
Sequence of DNA topoisomerase 2-alpha (Homo sapiens) (P11388 whole entry): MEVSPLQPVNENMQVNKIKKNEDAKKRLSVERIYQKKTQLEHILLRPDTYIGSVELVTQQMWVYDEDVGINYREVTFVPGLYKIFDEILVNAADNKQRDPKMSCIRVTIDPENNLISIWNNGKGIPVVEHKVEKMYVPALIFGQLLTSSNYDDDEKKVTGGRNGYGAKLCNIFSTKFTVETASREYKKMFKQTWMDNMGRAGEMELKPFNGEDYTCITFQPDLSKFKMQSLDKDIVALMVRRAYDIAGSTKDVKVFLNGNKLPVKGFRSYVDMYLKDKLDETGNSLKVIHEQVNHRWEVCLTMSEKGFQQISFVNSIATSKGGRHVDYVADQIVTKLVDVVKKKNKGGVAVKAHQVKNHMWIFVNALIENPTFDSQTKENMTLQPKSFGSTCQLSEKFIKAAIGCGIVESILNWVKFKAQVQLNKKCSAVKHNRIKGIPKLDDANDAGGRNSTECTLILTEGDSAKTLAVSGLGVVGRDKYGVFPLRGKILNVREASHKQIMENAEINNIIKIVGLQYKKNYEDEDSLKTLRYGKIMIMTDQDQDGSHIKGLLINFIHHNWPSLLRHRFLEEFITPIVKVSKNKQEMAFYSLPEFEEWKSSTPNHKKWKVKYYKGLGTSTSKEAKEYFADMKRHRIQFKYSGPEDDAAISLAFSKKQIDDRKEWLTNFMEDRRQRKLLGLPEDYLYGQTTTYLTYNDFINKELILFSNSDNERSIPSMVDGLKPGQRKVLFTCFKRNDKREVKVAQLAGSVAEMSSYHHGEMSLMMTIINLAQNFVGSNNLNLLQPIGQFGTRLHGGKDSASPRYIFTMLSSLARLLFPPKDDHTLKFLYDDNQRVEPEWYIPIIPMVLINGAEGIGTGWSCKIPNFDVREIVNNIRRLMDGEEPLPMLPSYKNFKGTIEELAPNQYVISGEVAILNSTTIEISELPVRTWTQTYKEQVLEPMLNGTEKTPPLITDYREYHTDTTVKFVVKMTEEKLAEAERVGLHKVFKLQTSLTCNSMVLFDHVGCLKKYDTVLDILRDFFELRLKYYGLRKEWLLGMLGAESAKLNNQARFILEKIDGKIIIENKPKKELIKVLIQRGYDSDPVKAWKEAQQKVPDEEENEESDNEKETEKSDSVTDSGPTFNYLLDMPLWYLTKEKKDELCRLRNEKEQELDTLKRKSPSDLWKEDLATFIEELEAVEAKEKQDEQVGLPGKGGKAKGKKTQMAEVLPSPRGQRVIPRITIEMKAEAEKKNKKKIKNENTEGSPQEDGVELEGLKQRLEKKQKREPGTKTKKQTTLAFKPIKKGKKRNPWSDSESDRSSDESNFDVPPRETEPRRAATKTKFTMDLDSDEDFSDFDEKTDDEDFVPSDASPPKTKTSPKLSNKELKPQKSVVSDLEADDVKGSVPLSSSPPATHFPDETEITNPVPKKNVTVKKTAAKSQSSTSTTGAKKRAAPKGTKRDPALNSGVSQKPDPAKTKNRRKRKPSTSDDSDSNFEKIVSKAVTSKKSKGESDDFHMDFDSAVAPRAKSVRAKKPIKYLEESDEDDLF
Sequence of DNA nucleotidylexotransferase (Bos taurus) (P06526 whole entry): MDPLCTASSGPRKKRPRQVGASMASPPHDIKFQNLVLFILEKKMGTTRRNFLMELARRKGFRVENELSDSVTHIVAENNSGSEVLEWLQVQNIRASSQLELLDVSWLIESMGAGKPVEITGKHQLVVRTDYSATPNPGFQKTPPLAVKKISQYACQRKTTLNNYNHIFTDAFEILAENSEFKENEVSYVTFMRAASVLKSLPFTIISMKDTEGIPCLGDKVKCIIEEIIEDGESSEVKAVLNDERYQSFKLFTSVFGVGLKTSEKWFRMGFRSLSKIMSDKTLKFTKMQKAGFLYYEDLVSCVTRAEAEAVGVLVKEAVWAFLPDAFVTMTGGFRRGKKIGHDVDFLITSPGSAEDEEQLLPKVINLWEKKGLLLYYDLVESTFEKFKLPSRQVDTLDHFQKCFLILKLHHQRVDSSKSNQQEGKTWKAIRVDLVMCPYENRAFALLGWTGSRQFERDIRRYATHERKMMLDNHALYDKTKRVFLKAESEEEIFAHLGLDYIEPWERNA

Structure (SMILES) | Activity [1] | Activity [2] | IC50 (DNA polymerase beta) | IC50 [3] | Activity [4] | Activity (Brassica oleracea) | Activity (Oncorhynchus masou) | Activity (Escherichia coli) | Activity (Tequatrovirus T4) | Activity (Thermus aquaticus) | Activity (Bos taurus) | Activity [5] | Activity [6] | Activity (Escherichia phage T7) | Activity [7] | Activity [8] | Activity [9] | Activity [10] | Activity [11]
COc1cc(C)c(C(=O)O[C@H]2CC3=C(COC(/C=C/CO)=C3)C(=O)[C@@]2(C)O)c(O)c1 [KASANOSIN A] | Active | Active | 27.3 µM | 35 µM | inactive | inactive | inactive | inactive | inactive | inactive | inactive | inactive | inactive | inactive | inactive | inactive | inactive | inactive | inactive
COc1cc(C)c(C(=O)O[C@]2(C)C(=O)C3=C(C=C(/C=C/CO)OC3)C[C@@H]2O)c(O)c1 [KASANOSIN B] | Active | Active | 60.1 µM | 72.9 µM | inactive | inactive | inactive | inactive | inactive | inactive | inactive | inactive | inactive | inactive | inactive | inactive | inactive | inactive | inactive
